We go through 22 compounds from patent US20220226337A1 (Gilead Sciences, Inc., priority 2018, published 2022).

The experiment deals with T1, α4β7 integrin interaction with MadCAM-1 (RPMI8866 cells) (Homo sapiens, UniProt P13612+P26010).
T1 construct: α4β7 integrin expressing cells; endogenous in cells; host or cells: RPMI8866 cells
T1 sequence (P13612 34-1032): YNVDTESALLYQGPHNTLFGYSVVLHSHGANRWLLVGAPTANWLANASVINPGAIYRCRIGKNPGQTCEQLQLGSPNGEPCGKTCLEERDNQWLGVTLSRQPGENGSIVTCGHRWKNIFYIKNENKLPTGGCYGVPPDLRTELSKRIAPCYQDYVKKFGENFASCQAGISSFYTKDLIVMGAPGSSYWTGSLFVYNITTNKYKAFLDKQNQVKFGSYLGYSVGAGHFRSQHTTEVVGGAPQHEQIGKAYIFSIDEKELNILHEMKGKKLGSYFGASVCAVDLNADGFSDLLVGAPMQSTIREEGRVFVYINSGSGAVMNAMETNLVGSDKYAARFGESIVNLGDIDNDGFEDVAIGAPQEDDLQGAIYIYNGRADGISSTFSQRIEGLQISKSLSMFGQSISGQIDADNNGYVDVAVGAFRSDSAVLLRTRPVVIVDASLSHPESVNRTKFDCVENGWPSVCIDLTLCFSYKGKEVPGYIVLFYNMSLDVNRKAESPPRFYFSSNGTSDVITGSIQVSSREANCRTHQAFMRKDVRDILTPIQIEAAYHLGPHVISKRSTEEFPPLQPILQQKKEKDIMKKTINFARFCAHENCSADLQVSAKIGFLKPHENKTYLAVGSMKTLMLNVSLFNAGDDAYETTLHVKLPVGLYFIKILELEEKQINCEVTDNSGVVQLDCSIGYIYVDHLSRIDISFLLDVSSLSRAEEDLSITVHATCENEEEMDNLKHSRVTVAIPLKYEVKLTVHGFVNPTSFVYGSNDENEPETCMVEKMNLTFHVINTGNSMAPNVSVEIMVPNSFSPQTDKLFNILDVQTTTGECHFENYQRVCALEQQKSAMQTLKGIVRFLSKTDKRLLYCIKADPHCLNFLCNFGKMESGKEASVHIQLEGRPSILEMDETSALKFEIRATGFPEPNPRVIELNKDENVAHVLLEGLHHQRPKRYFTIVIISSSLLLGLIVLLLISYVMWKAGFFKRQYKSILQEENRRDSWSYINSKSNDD
T1 sequence (P26010 20-798): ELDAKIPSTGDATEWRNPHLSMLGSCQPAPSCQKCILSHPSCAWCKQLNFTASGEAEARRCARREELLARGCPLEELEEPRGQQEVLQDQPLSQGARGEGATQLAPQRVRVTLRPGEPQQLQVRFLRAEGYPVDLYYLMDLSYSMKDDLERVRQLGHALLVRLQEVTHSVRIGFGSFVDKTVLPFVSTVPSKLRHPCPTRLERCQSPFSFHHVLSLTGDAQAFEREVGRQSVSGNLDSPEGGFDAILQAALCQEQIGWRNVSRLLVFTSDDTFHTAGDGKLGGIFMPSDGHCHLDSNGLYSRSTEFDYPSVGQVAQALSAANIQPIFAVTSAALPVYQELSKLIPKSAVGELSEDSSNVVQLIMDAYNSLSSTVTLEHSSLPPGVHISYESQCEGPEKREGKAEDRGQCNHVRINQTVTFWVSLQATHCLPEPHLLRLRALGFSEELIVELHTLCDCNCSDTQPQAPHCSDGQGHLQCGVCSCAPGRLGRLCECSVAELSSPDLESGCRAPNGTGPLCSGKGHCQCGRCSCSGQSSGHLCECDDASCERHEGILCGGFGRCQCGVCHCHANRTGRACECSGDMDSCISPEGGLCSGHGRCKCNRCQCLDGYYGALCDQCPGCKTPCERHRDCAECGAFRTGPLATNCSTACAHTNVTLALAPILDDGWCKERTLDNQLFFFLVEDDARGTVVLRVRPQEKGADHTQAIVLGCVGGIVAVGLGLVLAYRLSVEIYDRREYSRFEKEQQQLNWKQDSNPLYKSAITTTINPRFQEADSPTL
The experiment in a line: α4β7 Integrin Cell Capture Assay. In kind it is cell-based. The note with it: capture of α4β7 integrin expressing RPMI8866 cells on recombinant MadCAM-1 extracellular domain-coated plate; 0.5 mM MnCl2. As for the experimental part: The potency of inhibitors in preventing α4β7 integrin interaction with MadCAM-1 was measured by monitoring the capture of α4β7 integrin expressing cells on a recombinant MadCAM-1 extracellular domain-coated plate. 384-well plates (Corning 3702) were coated with MadCAM-1 extracellular domain by dispensing 20 μL of MAdCAM-1 at 1.0 μg/mL per well and incubating overnight at 4° C. The plates were then washed with PBS and blocked with 3% BSA for 2 hours before being washed again. RPMI8866 cells were spun down and re-suspended in assay medium (DMEM+0.5% FBS+0.5 mM MnCl2) at a density of 0.5×10^6 cells/mL. The cells were then dispensed (60 μL/well) to a 384-well plate (Greiner 781280) that was previously spotted with 60 nL of test compound per well. The plates were incubated at 37° C. for 1 hour. 50 μL of cells were transferred to the blocked, MadCAM-1-coated plates and incubated for 30 minutes at 37° C. 10 μL of 12% glutaraldehyde containing Hoechst 33342 (0.06 mg/mL) was added to the cells (2% glutaraldehyde and 0.01 mg/mL final concentrations). The plates were incubated for 90 minutes at room temperature. The plates were then washed 3 times with 70 μL of PBS per well and imaged on a Cellomics ArrayScan instrument. The cells that were bound to the plate were counted and plotted against the compound concentration to determine the EC50 of the test compounds.
`CC[C@@H](Nc1cc(F)c(C(=O)N[C@@H](Cc2ccc(-c3c(C(F)(F)F)cc(C)n(C)c3=O)c3c2COC3)C(=O)O)c(F)c1)C(F)(F)F` [Example 13, (S)-2-(2,6-difluoro-4-(((R)-1,1,1-trifluorobutan-2-yl)amino)benzamido)-3-(7-(1,6-dimethyl-2-oxo-4-(trifluoromethyl)-1,2-dihydropyridin-3-yl)-1,3-dihydroisobenzofuran-4-yl)propanoic acid]: the EC50 stood at 0.388 nM.
Regarding `O=C(N[C@@H](Cc1ccc(-c2c(Cl)cc(F)cc2Cl)c2c1[C@H]1C[C@H]1CO2)C(=O)O)c1c(F)cccc1F` (single isomer, unassigned) [Example 78], the EC50 is 120 nM.
For the compound `Cc1cc(-c2ccc(C[C@H](NC(=O)c3c(F)cc(N4CCOC[C@@H]4C(F)(F)F)cc3F)C(=O)O)c3c2OCCC3)c(=O)n(C)c1C` [Example 162], the EC50 is 0.78 nM.
In the case of `CN1CCCc2c(C[C@H](NC(=O)c3c(F)cccc3F)C(=O)O)ccc(-c3c(Cl)cc(F)cc3Cl)c21` [Example 102, (S)-3-(8-(2,6-dichloro-4-fluorophenyl)-1-methyl-1,2,3,4-tetrahydroquinolin-5-yl)-2-(2,6-difluorobenzamido)propanoic acid], the EC50 is 267 nM.
For `CC[C@@H](Nc1cc(F)c(C(=O)N[C@@H](Cc2ccc(-c3cc4ccccc4n(C)c3=O)c3c2COC3)C(=O)O)c(F)c1)C(F)(F)F` [Example 21, (S)-2-(2,6-difluoro-4-(((R)-1,1,1-trifluorobutan-2-yl)amino)benzamido)-3-(7-(1-methyl-2-oxo-1,2-dihydroquinolin-3-yl)-1,3-dihydroisobenzofuran-4-yl)propanoic acid], the EC50 turned out to be 6 nM.
“(S)-2-(2,6-difluoro-4-(((R)-1,1,1-trifluorobutan-2-yl)amino)benzamido)-3-(7-(1,4-dimethyl-2-oxo-5-(trifluoromethyl)-1,2-dihydropyridin-3-yl)-1,3-dihydroisobenzofuran-4-yl)propanoic acid [Example 25]”: the EC50 came to 2.85 nM.
On to `Cc1cc(-c2ccc(C[C@H](NC(=O)c3c(F)cc(N4CCOC[C@@H]4C(F)(F)F)cc3F)C(=O)O)c3c2OCCC3)c(=O)n(C)n1` [Example 148], for which the EC50 worked out at 0.76 nM.
To `COc1cc(F)c(F)cc1-c1ccc(C[C@H](NC(=O)c2c(Cl)cccc2Cl)C(=O)O)c2c1OCCC2` [Example 70, (S)-2-(2,6-dichlorobenzamido)-3-(8-(4,5-difluoro-2-methoxyphenyl)chroman-5-yl)propanoic acid] belongs 30.5 nM.
On to `O=C(N[C@@H](Cc1ccc(-c2cc(F)c(F)c3c2OCCC3)c2c1CCCO2)C(=O)O)c1c(Cl)cccc1Cl` [Example 90, (S)-2-(2,6-dichlorobenzamido)-3-(5′,6′-difluoro-[8,8′-bichroman]-5-yl)propanoic acid], for which the EC50 turned out to be 16 nM.
With `CC[C@@H](Nc1cc(F)c(C(=O)N[C@@H](Cc2ccc(-c3nc(C)c(C)n(C)c3=O)c3c2CCCO3)C(=O)O)c(F)c1)C(F)(F)F` [Example 49, (S)-2-(2,6-difluoro-4-(((R)-1,1,1-trifluorobutan-2-yl)amino)benzamido)-3-(8-(4,5,6-trimethyl-3-oxo-3,4-dihydropyrazin-2-yl)chroman-5-yl)propanoic acid], the EC50 turned out to be 0.83 nM.
Next, `CC[C@@H](Nc1cc(F)c(C(=O)N[C@@H](Cc2ccc(-c3c(C)nc(C)n(C)c3=O)c3c2CCCO3)C(=O)O)c(F)c1F)C(F)(F)F` [Example 126]: 0.379 nM; `Cc1c(C(F)(F)F)cn(C)c(=O)c1-c1ccc(C[C@H](NC(=O)c2c(F)cc(N3CCOC[C@@H]3C(F)(F)F)cc2F)C(=O)O)c2c1COC2` [Example 29, (S)-2-(2,6-difluoro-4-((R)-3-(trifluoromethyl)morpholino)benzamido)-3-(7-(1,4-dimethyl-2-oxo-5-(trifluoromethyl)-1,2-dihydropyridin-3-yl)-1,3-dihydroisobenzofuran-4-yl)propanoic acid]: 0.817 nM.
For `Cc1cc(N2CCOC[C@@H]2C(F)(F)F)cc(F)c1C(=O)N[C@@H](Cc1ccc(-c2c(C)nc(C)n(C)c2=O)c2c1CCC2)C(=O)O` [Example 194], the EC50 worked out at 0.099 nM.
Next, `Cc1cc(N2CCCC[C@@H]2C(F)(F)F)cc(F)c1C(=O)N[C@@H](Cc1ccc(-c2nc(C)c(C)n(C)c2=O)c2c1CCCO2)C(=O)O` [Example 149]: 0.715 nM; `CC[C@@H](Nc1cc(F)c(C(=O)N[C@@H](Cc2ccc(-c3c(C)n(C)c(=O)n(C)c3=O)c3c2CCCO3)C(=O)O)c(F)c1)C(F)(F)F` (single isomer, unassigned) [Example 55]: 0.152 nM.
In the case of `COCN(C(=O)c1c(F)cc(N2CCOC[C@@H]2C(F)(F)F)cc1F)[C@@H](Cc1ccc(-c2nc(C)c(C)n(C)c2=O)c2c1CCCO2)C(=O)O` [Example 116], the EC50 worked out at 19 nM.
Turning to `Cc1nc(-c2ccc(C[C@H](NC(=O)c3c(F)cc(N4CCO[C@@H](C)C4)cc3F)C(=O)O)c3c2OCCC3)c(=O)n(C)c1C` [Example 157], the EC50 was 1.82 nM.
Next, `Cc1cc(N2CCOC[C@@H]2C(F)(F)F)cc(F)c1C(=O)N[C@@H](Cc1ccc(-c2c(C)cc(C)n(C)c2=O)c2c1CCCO2)C(=O)O` [Example 160]: 0.189 nM; `Cc1c(-c2ccc(C[C@H](NC(=O)c3c(F)cccc3F)C(=O)O)c3c2CCOC3)c(=O)n(C)c2ccc(F)cc12` (single isomer, unassigned) [Example 36]: 24.8 nM; `Cc1cc(N2CCOC[C@@H]2C(F)(F)F)cc(F)c1C(=O)N[C@@H](Cc1ccc(-n2c(=O)c3ccncc3n(C)c2=O)c2c1OCCO2)C(=O)O` [Example 173]: 0.056 nM.
With `CC[C@@H](Nc1cc(F)c(C(=O)N[C@@H](Cc2ccc(-c3c(C)cc(C)n(C)c3=O)c3c2CCCO3)C(=O)O)c(F)c1)C(F)(F)F` [Example 52, (S)-2-(2,6-difluoro-4-(((R)-1,1,1-trifluorobutan-2-yl)amino)benzamido)-3-(8-(1,4,6-trimethyl-2-oxo-1,2-dihydropyridin-3-yl)chroman-5-yl)propanoic acid], the EC50 stood at 1.63 nM.
In the case of `Cc1cn(C)c(=O)c(-c2ccc(C[C@H](NC(=O)c3c(F)cc(N4CCOC[C@@H]4C(F)(F)F)cc3F)C(=O)O)c3c2OCCC3)n1` [Example 168], the EC50 was 0.946 nM.
